Experimental data taken from ChEMBL document CHEMBL3352625, “Development of novel neurokinin 3 receptor (NK3R) selective agonists with resistance to proteolytic degradation” (J Med Chem, 2014).
One block for each molecule: values may come before it. Calls of active or inactive are those of the source. No cut-off for these calls is given here. Where a SMILES comes first, the peptide text is derived from it. [ ]: non-standard residue; d: D form. NMeF = CN[C@@H](Cc1ccccc1)C(=O)O

Legend:
[1] = target: T1, Neuromedin-K receptor (Homo sapiens, UniProt P29371); assay: (§1) Agonist activity at human NK3R expressed in CHO cells assessed as induction of Ca2+ influx […]; type: functional, cell-based
T1 sequence (P29371 whole entry): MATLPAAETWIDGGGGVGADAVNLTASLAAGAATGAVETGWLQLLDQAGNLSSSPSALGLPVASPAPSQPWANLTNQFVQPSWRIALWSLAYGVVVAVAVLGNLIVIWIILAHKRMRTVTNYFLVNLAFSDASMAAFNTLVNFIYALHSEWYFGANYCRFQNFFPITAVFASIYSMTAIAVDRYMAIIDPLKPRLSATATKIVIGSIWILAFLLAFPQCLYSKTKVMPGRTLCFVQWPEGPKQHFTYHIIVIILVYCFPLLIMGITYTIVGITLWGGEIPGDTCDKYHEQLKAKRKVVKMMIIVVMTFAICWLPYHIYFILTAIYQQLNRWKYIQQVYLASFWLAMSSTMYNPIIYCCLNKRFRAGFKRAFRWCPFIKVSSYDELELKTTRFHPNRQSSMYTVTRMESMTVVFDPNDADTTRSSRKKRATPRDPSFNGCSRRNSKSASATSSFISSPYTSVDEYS

[2] = target: T1, Neuromedin-K receptor; assay: Displacement of [125I]His3, MePhe7 from human NK3R expressed in CHO cell membranes by scintillation counting
[3] = target: T2, Substance-K receptor (Homo sapiens) (UniProt P21452); assay: Displacement of [125I]-NKA from […] expressed in CHO cell membranes at 10 uM by scintillation counting
T2 sequence (whole entry): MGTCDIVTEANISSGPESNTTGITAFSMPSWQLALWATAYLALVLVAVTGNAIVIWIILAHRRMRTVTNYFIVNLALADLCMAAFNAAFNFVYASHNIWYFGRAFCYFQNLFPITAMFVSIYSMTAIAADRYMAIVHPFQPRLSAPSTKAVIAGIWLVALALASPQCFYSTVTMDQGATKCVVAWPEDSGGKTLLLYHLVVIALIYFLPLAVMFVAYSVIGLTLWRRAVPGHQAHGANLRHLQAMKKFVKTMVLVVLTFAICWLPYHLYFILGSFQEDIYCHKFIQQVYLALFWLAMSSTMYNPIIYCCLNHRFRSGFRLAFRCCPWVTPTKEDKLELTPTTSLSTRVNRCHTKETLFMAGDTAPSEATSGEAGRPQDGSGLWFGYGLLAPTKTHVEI

[4] = target: Substance-P receptor (Homo sapiens) (UniProt P25103); assay: Displacement of [125I]-BH-SP from human NK1R expressed in CHO cell membranes at 10 uM by scintillation counting
[5] = Drug metabolism in goat serum assessed as peptide H-His-Asp-Phe-Phe-MePhe-Gly-Leu-Met-NH2 formation by HPLC analysis; type: ADME, cell-free, Capra hircus
[6] = Drug metabolism in goat serum assessed as peptide H-Phe-MePhe-Gly-Leu-Met-NH2 formation by HPLC analysis; type: ADME, cell-free, Capra hircus
[7] = Drug metabolism in goat serum assessed as peptide H-Asp-Phe-Phe-MePhe-Gly-Leu-Met-NH2 formation by HPLC analysis; type: ADME, cell-free, Capra hircus
[8] = test system: Serum; assay: Drug metabolism in rat serum assessed as peptide H-Asp-Phe-Phe-MePhe-Gly-Leu-Met-NH2 formation by HPLC analysis; type: ADME, cell-free
[9] = Drug metabolism in pig serum assessed as peptide H-Asp-Phe-Phe-MePhe-Gly-Leu-Met-NH2 formation by HPLC analysis; type: ADME, cell-free, Sus scrofa
[10] = test system: Serum; assay: Drug metabolism in rat serum assessed as H-His-Asp-Phe-Phe-MePhe-Gly-Leu-Met-NH2 2 formation by HPLC analysis; type: ADME, cell-free
[11] = test system: Serum; assay: Drug metabolism in rat serum assessed as peptide H-Phe-MePhe-Gly-Leu-Met-OH formation by HPLC analysis; type: ADME, cell-free
[12] = test system: Serum; assay: Drug metabolism in cattle serum assessed as peptide H-Phe-MePhe-Gly-Leu-Met-NH2 formation by HPLC analysis; type: ADME, cell-free, Bos taurus
[13] = test system: Serum; assay: Drug metabolism in rat serum assessed as peptide H-Phe-MePhe-Gly-Leu-Met-NH2 formation by HPLC analysis; type: ADME, cell-free
[14] = Drug metabolism in pig hypothalamic extract assessed as peptide H-Asp-Phe-Phe-MePhe-Gly-Leu-Met-NH2 formation by HPLC analysis; type: ADME, Sus scrofa, Hypothalamus
[15] = Drug metabolism in pig hypothalamic extract assessed as peptide H-His-Asp-Phe-Phe-MePhe-Gly-Leu-Met-NH2 formation by HPLC analysis; type: ADME, Sus scrofa, Hypothalamus
[16] = Drug metabolism in pig serum assessed as peptide H-His-Asp-Phe-Phe-MePhe-Gly-Leu-Met-NH2 formation by HPLC analysis; type: ADME, cell-free, Sus scrofa
[17] = test system: Serum; assay: Drug metabolism in cattle serum assessed as peptide H-His-Asp-Phe-Phe-MePhe-Gly-Leu-Met-NH2 formation by HPLC analysis; type: ADME, cell-free, Bos taurus
[18] = Drug metabolism in pig hypothalamic extract assessed as peptide H-Met-His-Asp-Phe-Phe-MePhe-Gly-Leu-Met-NH2 formation by HPLC analysis; type: ADME, Sus scrofa, Hypothalamus
[19] = Drug metabolism in pig hypothalamic extract assessed as peptide H-Phe-MePhe-Gly-Leu-Met-NH2 formation by HPLC analysis; type: ADME, Sus scrofa, Hypothalamus
[20] = test system: Serum; assay: Drug metabolism in cattle serum assessed as peptide H-Asp-Phe-Phe-MePhe-Gly-Leu-Met-NH2 formation by HPLC analysis; type: ADME, cell-free, Bos taurus
[21] = Drug metabolism in pig serum assessed as peptide H-Phe-MePhe-Gly-Leu-Met-NH2 formation by HPLC analysis; type: ADME, cell-free, Sus scrofa
[22] = Drug metabolism in pig hypothalamic extract assessed as peptide H-Phe-Phe-MePhe-Gly-Leu-Met-NH2 formation by HPLC analysis; type: ADME, Sus scrofa, Hypothalamus
[23] = Drug metabolism in pig hypothalamic extract assessed as peptide H-Phe-MePhe-Gly-OH formation by HPLC analysis; type: ADME, Sus scrofa, Hypothalamus
[24] = Drug metabolism in pig hypothalamic extract assessed as peptide H-Phe-MePhe-Gly-Leu-Met-OH formation by HPLC analysis; type: ADME, Sus scrofa, Hypothalamus
[25] = target: T3, Neuromedin-K receptor (Homo sapiens) (UniProt P29371); assay: as §1; type: functional, cell-based
T3 sequence (whole entry): T1 sequence (P29371 whole entry)

Sequence of Substance-P receptor (Homo sapiens) (P25103 whole entry): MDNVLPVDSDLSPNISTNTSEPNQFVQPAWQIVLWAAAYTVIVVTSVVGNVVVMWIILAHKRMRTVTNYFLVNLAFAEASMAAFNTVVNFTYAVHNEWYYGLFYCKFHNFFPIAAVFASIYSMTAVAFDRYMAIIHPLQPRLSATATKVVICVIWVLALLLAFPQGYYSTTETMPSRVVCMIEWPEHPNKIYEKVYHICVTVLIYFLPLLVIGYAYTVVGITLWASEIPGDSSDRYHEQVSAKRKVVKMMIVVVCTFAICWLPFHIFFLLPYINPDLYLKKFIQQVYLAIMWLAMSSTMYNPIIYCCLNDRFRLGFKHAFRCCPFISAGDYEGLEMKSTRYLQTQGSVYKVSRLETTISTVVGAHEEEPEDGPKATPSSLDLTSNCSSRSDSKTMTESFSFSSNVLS

EC50 [1]: 91 nM
IC50 [2]: 59 nM
inhibition [3]: 73%
inhibition [4]: 15%
SMILES: CSCC[C@H](NC(=O)[C@H](CC(C)C)NC(=O)CNC(=O)[C@H](Cc1ccccc1)N(C)C(=O)[C@H](Cc1ccccc1)NC(=O)[C@H](Cc1ccccc1)NC(=O)[C@@H](N)CC(=O)O)C(N)=O (H-DFF[NMeF]GLM-NH2)

Drug metabolism [5]: metabolite_detected
Drug metabolism [6]: metabolite_detected
Drug metabolism [7]: metabolite_detected
EC50 [1]: 64 nM
Drug metabolism [8]: metabolite_detected
Drug metabolism [9]: metabolite_detected
Drug metabolism [10]: metabolite_detected
Drug metabolism [11]: metabolite_detected
Drug metabolism [12]: metabolite_detected
Drug metabolism [13]: metabolite_detected
Drug metabolism [14]: metabolite_notdetected
IC50 [2]: 12 nM
Drug metabolism [15]: metabolite_notdetected
Drug metabolism [16]: metabolite_detected
Drug metabolism [17]: metabolite_detected
Drug metabolism [18]: metabolite_notdetected
Drug metabolism [19]: metabolite_detected
Drug metabolism [20]: metabolite_detected
Drug metabolism [21]: metabolite_detected
Drug metabolism [22]: metabolite_notdetected
Drug metabolism [23]: metabolite_detected
Drug metabolism [24]: metabolite_detected
SMILES: CSCC[C@H](NC(=O)[C@H](CC(C)C)NC(=O)CNC(=O)[C@H](Cc1ccccc1)N(C)C(=O)[C@H](Cc1ccccc1)NC(=O)[C@H](Cc1ccccc1)NC(=O)[C@H](CC(=O)O)NC(=O)[C@H](Cc1cnc[nH]1)NC(=O)[C@H](CCSC)NC(=O)[C@@H](N)CC(=O)O)C(N)=O (H-DMHDFF[NMeF]GLM-NH2)

EC50 [1]: 240 nM
IC50 [2]: 2900 nM
inhibition [3]: 84%
inhibition [4]: 49%
SMILES: CSCC[C@H](NC(=O)[C@H](CC(C)C)NC(=O)CNC(=O)[C@H](Cc1ccccc1)N(C)C(=O)[C@H](Cc1ccccc1)NC(=O)[C@@H](N)Cc1ccccc1)C(N)=O (H-FF[NMeF]GLM-NH2)

EC50 [1]: 350 nM
IC50 [2]: 2300 nM
inhibition [3]: 77%
inhibition [4]: 70%
SMILES: CSCC[C@H](NC(=O)[C@H](CC(C)C)NC(=O)CNC(=O)[C@H](Cc1ccccc1)N(C)C(=O)[C@@H](N)Cc1ccccc1)C(N)=O (H-F[NMeF]GLM-NH2)

EC50 [1]: > 100000 nM
SMILES: CSCC[C@H](NC(=O)[C@H](CC(C)C)NC(=O)CNC(=O)[C@H](Cc1ccccc1)N(C)C(=O)[C@@H](N)Cc1ccccc1)C(=O)O (H-F[NMeF]GLM-OH)

EC50 [1]: 280 nM
IC50 [2]: 43 nM
inhibition [3]: 74%
inhibition [4]: 18%
SMILES: CSCC[C@H](NC(=O)[C@H](CC(C)C)NC(=O)CNC(=O)[C@H](Cc1ccccc1)N(C)C(=O)[C@H](Cc1ccccc1)NC(=O)[C@H](Cc1ccccc1)NC(=O)[C@H](CC(=O)O)NC(=O)[C@@H](N)Cc1cnc[nH]1)C(N)=O (H-HDFF[NMeF]GLM-NH2)

Activity [25]: inactive
SMILES: CSCC[C@H](NC(=O)[C@@H](N)CC(C)C)C(N)=O (H-Leu-Met-NH2)
